Laboratory results reported in US4661482A, “Use of pyrazolobenzoxazines in method of treating cerebral senescence and cerebral hypoxin” (Roussel Uclaf, priority 1985, dated 1987).

What was measured:
[1] = Determination of hypotensive activity (carotidien arterial pressure, anesthetised rats); assay type: in vivo, male rats of WISTAR strain; settings: vs initial control pressure
Protocol: The hypotensive activity was studied on male rats of WISTAR strain weighing about 300 g and anesthetised with nembutal (50 mg/kg by intraperitoneal route). The test product was administered intravenously into the jugular vein and the carotidien arterial pressure was measured before and after administration of the product. The following table reports the variations expressed in percentages of the arterial pressure after administration of the product in relation to the initial control arterial pressure.

[2] = Test of hypobare anoxemia (antianoxic activity); assay type: in vivo, male mice; settings: head: orally, text: sub-cutaneously, 90 mm of Hg
Protocol: A--Test of hypobare anoxemia:
Male mice weighing 20-22 g, having fasted for 5 hours, were divided into groups of 10 animals and the test product was administered to the animals sub-cutaneously. Fifteen minutes after administration of the product, the animals were placed in a 2 liter dessicator in which the pressure was brought rapidly to 90 mm of Hg by a pump, and their time of survival was noted expressed in seconds. The increase of the survival time was recorded expressed as a percentage of the animals treated in relation to the control animals submitted to the same conditions.

dopaminergic receptors [3] = test: Rotation behavior after unilateral lesion of the nigra-striated bundle by 6-hydroxydopamine; assay type: in vivo, male rats; settings: intraperitoneal; rats, groups of 8; starting dose
Protocol: Male rats of 220 g were injured in the nigra-striated dopaminergic bundle according to Ungerstedt's method [Ungerstedt, Acta physiol. Scand. (1971) Vol. 82, suppl. 367.69-93], modified by unilateral injection of 9.2 μg of 6-hydroxydopamine hydrochloride in solution in 4 μl of physiological solution containing 0.5 mg/ml of ascorbic acid. […] It therefore caused an agonistic action on the dopaminergic receptors at the central level.

dopaminergic receptors [4] = test: Stereotype behavior; assay type: in vivo, male rats; settings: intraperitoneal; rats, groups of 5; observed every half hour over 5 hours; starting dose
Protocol: The tests were carried out on groups of 5 male rats weighing 150 to 180 g and each animal was placed individually in a barred cage (29×25×17 cm) containing a few wood shaving. The test product was administered intraperitoneally and the behavior of the animals was noted every half hour over 5 hours with the rating recommended by HALLIWELL et al. [Brit. J. Pharmacol. (1964), Vol. 23, p. 330-350]. The animal was asleep (0), it was awake but immobile (1), it turned in the cage (2), it sniffed the cover (3), it licked the walls (4), it touched the wood shavings or the bars of the cage with its teeth (5), it bit the shavings or the bars of the cage (6).
The total is determined of the scores per group taken at different times after administrationof the product studied.

[5] = Determination of antihypertensive activity (spontaneously hypertensive rats); assay type: in vivo, spontaneously hypertensive male rats of the OKAMOTO strain; settings: 0.5 mg/kg orally; one hour after administration
Protocol: The anithypertensive activity was studied on spontaneously hypertensive male rats of the OKAMOTO strain aged 20 weeks and weighing 300 to 320 g. The product was administered orally 48 hours after the positioning of an intracarotidien catheter to measure the arterial pressure. The pressure was measured before and 1 hour after administration of the product. For the product of Example 3, at a dose of 0.5 mg/kg the variation in percentage of arterial pressure after administration of the product in relation to the initial control pressure was -15% one hour after administration.

cerebral neuronal cells = test: enolase test (brain deprived of blood by ligature of the arteries); assay type: in vivo; settings: Rattus norvegicus, ip; intraperitoneal; rats; read-out: dose to which the releasing of enolase is diminished
Protocol: Suffering cerebral neuronal cells release enolase and the test was carried out on rats whose brain had been totally deprived of blood by ligature of the arteries supplying the brain. The product of Example 3 administered intraperitoneally diminished the releasing of enolase to a dose of 0.1 mg/kg. Therefore it was considered that it protected the cerebral cells against ischemia.

Acute toxicity (LD0) = assay type: in vivo; settings: oral, mice
Protocol: The lethal dose LD0 of the product of Example 3 was evaluated after oral administration to mice. LD0 is the maximum dose not causing any mortality in 8 days.

## 4a RS (4aα,7α,8aβ)-7-methylthiomethyl-2,4,4a,5,6,7,8a,9-octahydro-5-propylpyrazolo-[3,4-g]-1,4-benzoxazine hydrochloride [Example 4]
[1]; 0.01 mg/kg intravenous
  % Variation of arterial pressure, 5 minutes after administration: -5%
  % Variation of arterial pressure, 30 minutes after administration: -5%
[1]; 0.1 mg/kg intravenous
  % Variation of arterial pressure, 5 minutes after administration: -21%
  % Variation of arterial pressure, 30 minutes after administration: -17%
[2]; 1 mg/kg
  Increase in survival time: +32%

## CCCN1CCO[C@@H]2Cc3n[nH]cc3C[C@H]21 (relative stereo) [Example 3, [4a SR trans]-5-propyl-2,4,4a,5,6,7,8a,9-octahydro-pyrazolo-[4,3-g]-1,4-benzoxazine]
Dopaminergic receptors [3]
  dose from which rotations contra-lateral to the injured side are caused: 0.05 mg/kg
Dopaminergic receptors [4]
  dose from which stereotype movements are caused: 0.1 mg/kg
[1]; 0.01 mg/kg intravenous
  % Variation of arterial pressure, 5 minutes after administration: -19%
  % Variation of arterial pressure, 30 minutes after administration: -8%
[1]; 0.1 mg/kg intravenous
  % Variation of arterial pressure, 5 minutes after administration: -26%
  % Variation of arterial pressure, 30 minutes after administration: -21%
[5]
  variation in percentage of arterial pressure in relation to the initial control pressure: -15%
[2]; 0.01 mg/kg
  Increase in survival time: +37%
[2]; 0.1 mg/kg
  Increase in survival time: +90%
Cerebral neuronal cells
  minimal effective dose: 0.1 mg/kg
Acute toxicity (LD0)
  LD0 (maximum dose not causing any mortality in 8 days): ≥ 200 mg/kg
